Oligonucleotides are written 5' to 3', each unit as a sugar letter and its base; * is a phosphorothioate linkage, no mark a phosphodiester; rarer units and linkages stand in square brackets, end groups in braces. Plain capitals give the bases only. e = 2'-O-(2-methoxyethyl) (MOE); [5mC] = 5-methylcytosine

We go through two compounds from US20230302036A1, “COMPOSITIONS FOR TREATMENT OF SPINAL MUSCULAR ATROPHY” (priority 2020, published 2023).

Data set [1] has as its system H3K27 trimethylation over the SMN2 gene. Put plainly: ChIP-qPCR of H3K27 trimethylation over the SMN2 gene in HEK293T cells. The class given is cell-based, human. The conditions noted are these: ASO1 transfection. As for the experimental part: FIGS. 10A-10D show control experiments for the opposing roles of ASO1 on chromatin and splicing. […] Top: control Western blot for efficient expression of the c-Myc-SMN fusion protein encoded by plasmid pcDNA3.1+SMN1mycHIS (Addgene, cat.# 71687) using anti-tubulin (tub.) as loading control. Bottom: SMN2 E7 RT-PCR of cells co-transfected with ASO1 and plasmid. […] Distribution of these histone marks was assessed by ChIP-qPCR, with amplicons mapping near the numbered exons (E) and introns (i). Three independent immunoprecipitation replicates were conducted per experiment. Data are represented as mean ± S.D. (n = 5; in all cases p was much higher than 0.05, two-tailed Student’s t test). […] Top: control Western blot for efficient expression of the GFPRNaseH fusion protein encoded by plasmid pEGFP-RNASEH1 (Addgene, cat.# 108699), using anti-actin (act.) as loading control. Bottom: SMN2 E7 RT-PCR of cells co-transfected with ASO1 and the RNase H plasmid. […] Top: control Western blot for efficient AGO1 knockdown using anti-tubulin (tub.) as loading control. […]
Approximately 2×10^6 HEK293T cells per sample were treated for 10 min in 1% (v/v) formaldehyde at room temperature to crosslink protein-DNA complexes. […] Immunoprecipitated DNA (1.5 µl) and serial dilutions of the 10% input DNA (1:4, 1:20, 1: 100, and 1:500) were analyzed by SYBR-Green real-time qPCR.
In general terms: Real-time PCR tracks product formation cycle by cycle.

Data set [2] concerns H3K9me2 along SERF1A, MYOD, GAPDH. Put plainly: Specificity control ChIP-qPCR of H3K9me2 on SERF1A, MYOD and GAPDH in HEK293T cells. It counts as cell-based, human. As for the experimental part: FIGS. 6A-6D show antisense oligonucleotides and their effects on chromatin. […] Uppercase, exonic nucleotide sequence. Lowercase, intronic sequences. Upstream highlight, binding site for ASO1. Downstream highlight, binding site for ASO2. Levels of H3K9me2 deposition along small EDRK-rich factor 1A (SERF1A, upstream of SMN2) (FIG. 6B), Myoblast Determination Protein (MYOD) (FIG. 6C), and Glyceraldehyde 3-phosphate dehydrogenase (GAPDH) (FIG. 6D), were assessed by ChIP-qPCR in HEK293T cells. Data represented as mean ± S.D. (n = 4, *p < 0.05, two-tailed Student’s t test).
(§1) Approximately 2×10^6 HEK293T cells per sample were treated for 10 min in 1% (v/v) formaldehyde at room temperature to crosslink protein-DNA complexes. Crosslinking was stopped with glycine at a final concentration of 125 mM. Cells were washed twice with cold PBS and swelled on ice for 10 min in 25 mM HEPES pH 8, 1.5 mM MgCl2, 10 mM KCl, 0.1% NP-40, 1 mM DTT and 1× protease inhibitor cocktail set III (Calbiochem). Following Dounce homogenization, the nuclei were collected and resuspended in 1 ml sonication buffer (50 mM HEPES pH 8, 140 mM NaCl, 1 mM EDTA, 0.1% sodium deoxycholate, 0.1% SDS and 1× protease inhibitor cocktail). […] Immunoprecipitated DNA (1.5 µl) and serial dilutions of the 10% input DNA (1:4, 1:20, 1: 100, and 1:500) were analyzed by SYBR-Green real-time qPCR.

Data set [3] concerns total RNAPII along the human SMN2 transgene. Put plainly: ChIP-qPCR of total RNAPII along the human SMN2 transgene in brain and liver of P7 SMA mice. The class given is in vivo, mouse. As to conditions: P7 SMA mice injected with ASO1. The protocol:
H3K9me2 (left) and total RNAPII (right) distribution along the human SMN2 transgene, assessed by ChIP-qPCR, in brain (FIG. 12A) and liver (FIG. 12B) of P7 SMA mice injected with ASO1. Vertical arrows indicate the approximate location of the target site for ASO1 on the pre-mRNA. Three independent immunoprecipitation replicates were conducted per experiment. Data are represented as mean ± S.D. (n = 3, *p < 0.05, two-tailed Student’s t test).
as §1, with “cocktail). DNA was sonicated in an ultrasonic bath (Bioruptor Diagenode) to an average length of 200-500 bp. After addition of 1% (v/v) Triton X-100, samples were centrifuged at 15,000 ×g.” for “cocktail).”

Data set [4] deals with SMN2 pre-mRNA. Description: Transcriptional activation by RT-qPCR of SMN2 pre-mRNA in HEK293T cells. As to conditions: HDAC inhibitor alone. The class given is cell-based, human.
Description: (FIG. 5D and FIG. 5E) Transcriptional activation was assessed by RT-qPCR. (FIG. 5F) HEK293T cells with 3 nM ASO1 and 10 mM VPA for 24 hr. Bars indicate mean transcriptional activation ± SD ratios between precursors of SMN2 and GAPDH as the control gene. Statistical significance was analyzed by two-tailed Student’s t-tests. P < 0.05 was considered statistically significant.
HEK293T, HeLa, and SMA type I homozygous and carrier fibroblasts 3813 and 3814 (Coriell Cell Repositories, Camden, New Jersey, United States) were grown in Dulbecco’s modified Eagle’s medium (DMEM) containing 4.5 g of glucose and 10% fetal bovine serum (Gibco) at 37° C. Cells were plated at a density of 2×10^5 cells per well in 12-well plates 24 hr before transfection. siRNA (25 nM), plasmid (500 ng), or ASO (25 nM) transfections were performed 24 hr after cells were plated, using 3 µl of Lipofectamine 2000 (Thermo Fisher Scientific) per well in 12-well plates. 24-48 h later, cells were treated with Trichostatin A (Sigma, T8552), Valproic Acid (Sigma, P4543), 5-Azacytidine (Sigma, A2385) or vehicle for the indicated time, and harvested for downstream procedures.

Regarding “ASO1: 5′-ATTCACTTTCATAATGCTGG-3′ 2′-O-methoxyethyl-modified oligonucleotide with phosphorothioate backbone and all 5-methyl cytosines; nusinersen variant with 2-nucleotide extension (antisense eA*eT*eT*e[5mC]*eA*e[5mC]*eT*eT*eT*e[5mC]*eA*eT*eA*eA*eT*eG*e[5mC]*eT*eG*eG)”, the “H3K27 trimethylation over the SMN2 gene” value in data set [1] is given as “not affected”. In addition, the “H3K9 dimethylation in control genes (same TAD: SERF1A; outside TAD: MYOD, GAPDH)” value in data set [2] is reported as “neither ASO1 nor ASO2 promoted H3K9 dimethylation”. The “RNAPII accumulation on the SMN2 transgene in liver and brain” value in data set [3] was “RNAPII accumulation”.

`CCCC(CCC)C(=O)O` [VPA, valproic acid]: the “levels of SMN2 pre-mRNA (promoter-proximal amplicon)” value in data set [4] is on record as “increased the levels of SMN2 pre-mRNA”.
